# Tests used:
# Experiment in all cases: relative viability (nuclei count vs DMSO), 5 days (fraction); higher = more cells survive
# Gemcitabine = compound: Nc1ccn([C@@H]2O[C@H](CO)[C@@H](O)C2(F)F)c(=O)n1 [Gemcitabine]
# In short: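 Lung cancer cell lines were seeded into 1536-well plates, kept overnight at 37 °C and pinned with five library-drug doses (not always all listed) spaced by √10. After 5 days, nuclei were Hoechst-stained, imaged at 4× and counted with MetaXpress. Viability is treated-well nuclei over vehicle-well nuclei, taken as a median across plates. Plates needed control CV below 25% and at least one doubling.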
# Gemcitabine + Trametinib = compound: Nc1ccn([C@@H]2O[C@H](CO)[C@@H](O)C2(F)F)c(=O)n1 [Gemcitabine] + CC(=O)Nc1cccc(-n2c(=O)n(C3CC3)c(=O)c3c(Nc4ccc(I)cc4F)n(C)c(=O)c(C)c32)c1 [Trametinib] (partner 0.02 µM)
# In short: (§1)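 Lung cancer cell lines were seeded in 1536-well plates and dosed by pin tool the next day, with either a single drug or a fixed anchor-drug dose combined with five library-drug doses (not always all listed) spaced in √10 steps. Five days later, one step fixed the cells and stained their nuclei (final 0.05% Triton X-100, 1% formaldehyde, 1 ug/ml Hoechst), and nuclei were counted on 4× images. Relative viability is the nuclei count in treated wells divided by the count in vehicle wells, and each value is the median of duplicate plates.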
# [1] = compound: Nc1ccn([C@@H]2O[C@H](CO)[C@@H](O)C2(F)F)c(=O)n1 [Gemcitabine] + CC(=O)c1c(C)c2cnc(Nc3ccc(N4CCNCC4)cn3)nc2n(C2CCCC2)c1=O [Palbociclib] (partner 0.5 µM)
# In short: as §1
# Gemcitabine + Luminespib = compound: Nc1ccn([C@@H]2O[C@H](CO)[C@@H](O)C2(F)F)c(=O)n1 [Gemcitabine] + CCNC(=O)c1noc(-c2cc(C(C)C)c(O)cc2O)c1-c1ccc(CN2CCOCC2)cc1 [Luminespib] (partner 0.01 µM)
# In short: as §1
# Gemcitabine + OSI-027 = compound: Nc1ccn([C@@H]2O[C@H](CO)[C@@H](O)C2(F)F)c(=O)n1 [Gemcitabine] + COc1cccc2cc(-c3nc([C@H]4CC[C@H](C(=O)O)CC4)n4ncnc(N)c34)[nH]c12 [OSI-027] (partner 0.5 µM)
# In short: as §1
# Gemcitabine + Tozasertib = compound: Nc1ccn([C@@H]2O[C@H](CO)[C@@H](O)C2(F)F)c(=O)n1 [Gemcitabine] + Cc1cc(Nc2cc(N3CCN(C)CC3)nc(Sc3ccc(NC(=O)C4CC4)cc3)n2)n[nH]1 [Tozasertib] (partner 0.1 µM)
# In short: as §1
# Gemcitabine + Dasatinib = compound: Nc1ccn([C@@H]2O[C@H](CO)[C@@H](O)C2(F)F)c(=O)n1 [Gemcitabine] + Cc1nc(Nc2ncc(C(=O)Nc3c(C)cccc3Cl)s2)cc(N2CCN(CCO)CC2)n1 [Dasatinib] (partner 0.075 µM)
# In short: as §1
# Gemcitabine + Phenformin = compound: Nc1ccn([C@@H]2O[C@H](CO)[C@@H](O)C2(F)F)c(=O)n1 [Gemcitabine] + N=C(N)NC(=N)NCCc1ccccc1 [Phenformin] (partner 250 µM)
# In short: as §1
# Gemcitabine + AZD7762 = compound: Nc1ccn([C@@H]2O[C@H](CO)[C@@H](O)C2(F)F)c(=O)n1 [Gemcitabine] + NC(=O)Nc1cc(-c2cccc(F)c2)sc1C(=O)N[C@H]1CCCNC1 [AZD7762] (partner 0.2 µM)
# In short: as §1
# Gemcitabine + Pemetrexed = compound: Nc1ccn([C@@H]2O[C@H](CO)[C@@H](O)C2(F)F)c(=O)n1 [Gemcitabine] + Nc1nc2[nH]cc(CCc3ccc(C(=O)N[C@@H](CCC(=O)O)C(=O)O)cc3)c2c(=O)[nH]1 [Pemetrexed] (partner 0.2 µM)
# In short: as §1
# Gemcitabine + Decitabine = compound: Nc1ccn([C@@H]2O[C@H](CO)[C@@H](O)C2(F)F)c(=O)n1 [Gemcitabine] + Nc1ncn([C@H]2C[C@H](O)[C@@H](CO)O2)c(=O)n1 [Decitabine] (partner 2 µM)
# In short: as §1
# Gemcitabine + Vorinostat = compound: Nc1ccn([C@@H]2O[C@H](CO)[C@@H](O)C2(F)F)c(=O)n1 [Gemcitabine] + O=C(CCCCCCC(=O)Nc1ccccc1)NO [Vorinostat] (partner 1 µM)
# In short: as §1
# Gemcitabine + Olaparib = compound: Nc1ccn([C@@H]2O[C@H](CO)[C@@H](O)C2(F)F)c(=O)n1 [Gemcitabine] + O=C(c1cc(Cc2n[nH]c(=O)c3ccccc23)ccc1F)N1CCN(C(=O)C2CC2)CC1 [Olaparib] (partner 8 µM)
# In short: as §1
cell line,measurement,setting,value
NCI-H522,relative viability,Gemcitabine; 0.001 µM,1.12
same,relative viability,Gemcitabine; 0.003162 µM,0.812
same,relative viability,Gemcitabine; 0.01 µM,0.418
same,relative viability,Gemcitabine; 0.03162 µM,0.42
same,relative viability,Gemcitabine; 0.1 µM,0.388
same,relative viability,Gemcitabine + Trametinib; first compound 0.001 µM,0.705
same,relative viability,Gemcitabine + Trametinib; first compound 0.003162 µM,0.628
same,relative viability,Gemcitabine + Trametinib; first compound 0.01 µM,0.36
same,relative viability,Gemcitabine + Trametinib; first compound 0.03162 µM,0.347
same,relative viability,Gemcitabine + Trametinib; first compound 0.1 µM,0.319
same,relative viability,[1]; first compound 0.001 µM,0.885
same,relative viability,[1]; first compound 0.003162 µM,0.729
same,relative viability,[1]; first compound 0.01 µM,0.528
same,relative viability,[1]; first compound 0.03162 µM,0.394
same,relative viability,[1]; first compound 0.1 µM,0.364
same,relative viability,Gemcitabine + Luminespib; first compound 0.001 µM,1.14
same,relative viability,Gemcitabine + Luminespib; first compound 0.003162 µM,1.08
same,relative viability,Gemcitabine + Luminespib; first compound 0.01 µM,0.727
same,relative viability,Gemcitabine + Luminespib; first compound 0.03162 µM,0.392
same,relative viability,Gemcitabine + Luminespib; first compound 0.1 µM,0.368
same,relative viability,Gemcitabine + OSI-027; first compound 0.001 µM,0.653
same,relative viability,Gemcitabine + OSI-027; first compound 0.003162 µM,0.463
same,relative viability,Gemcitabine + OSI-027; first compound 0.01 µM,0.384
same,relative viability,Gemcitabine + OSI-027; first compound 0.03162 µM,1.12
same,relative viability,Gemcitabine + OSI-027; first compound 0.1 µM,0.393
same,relative viability,Gemcitabine + Tozasertib; first compound 0.001 µM,0.555
same,relative viability,Gemcitabine + Tozasertib; first compound 0.003162 µM,0.396
same,relative viability,Gemcitabine + Tozasertib; first compound 0.01 µM,0.379
same,relative viability,Gemcitabine + Tozasertib; first compound 0.03162 µM,0.354
same,relative viability,Gemcitabine + Tozasertib; first compound 0.1 µM,0.312
same,relative viability,Gemcitabine + Dasatinib; first compound 0.001 µM,0.987
same,relative viability,Gemcitabine + Dasatinib; first compound 0.003162 µM,0.722
same,relative viability,Gemcitabine + Dasatinib; first compound 0.01 µM,0.384
same,relative viability,Gemcitabine + Dasatinib; first compound 0.03162 µM,0.42
same,relative viability,Gemcitabine + Dasatinib; first compound 0.1 µM,0.36
same,relative viability,Gemcitabine + Phenformin; first compound 0.001 µM,0.653
same,relative viability,Gemcitabine + Phenformin; first compound 0.003162 µM,0.524
same,relative viability,Gemcitabine + Phenformin; first compound 0.01 µM,0.47
same,relative viability,Gemcitabine + Phenformin; first compound 0.03162 µM,0.396
same,relative viability,Gemcitabine + Phenformin; first compound 0.1 µM,0.384
same,relative viability,Gemcitabine + AZD7762; first compound 0.001 µM,0.709
same,relative viability,Gemcitabine + AZD7762; first compound 0.003162 µM,0.384
same,relative viability,Gemcitabine + AZD7762; first compound 0.01 µM,0.286
same,relative viability,Gemcitabine + AZD7762; first compound 0.03162 µM,0.323
same,relative viability,Gemcitabine + AZD7762; first compound 0.1 µM,0.204
same,relative viability,Gemcitabine + Pemetrexed; first compound 0.001 µM,0.954
same,relative viability,Gemcitabine + Pemetrexed; first compound 0.003162 µM,0.953
same,relative viability,Gemcitabine + Pemetrexed; first compound 0.01 µM,0.419
same,relative viability,Gemcitabine + Pemetrexed; first compound 0.03162 µM,0.367
same,relative viability,Gemcitabine + Pemetrexed; first compound 0.1 µM,0.316
same,relative viability,Gemcitabine + Decitabine; first compound 0.001 µM,0.653
same,relative viability,Gemcitabine + Decitabine; first compound 0.003162 µM,0.577
same,relative viability,Gemcitabine + Decitabine; first compound 0.01 µM,0.502
same,relative viability,Gemcitabine + Decitabine; first compound 0.03162 µM,0.352
same,relative viability,Gemcitabine + Decitabine; first compound 0.1 µM,0.342
same,relative viability,Gemcitabine + Vorinostat; first compound 0.001 µM,0.829
same,relative viability,Gemcitabine + Vorinostat; first compound 0.003162 µM,0.63
same,relative viability,Gemcitabine + Vorinostat; first compound 0.01 µM,0.4
same,relative viability,Gemcitabine + Vorinostat; first compound 0.03162 µM,0.331
same,relative viability,Gemcitabine + Vorinostat; first compound 0.1 µM,0.294
same,relative viability,Gemcitabine + Olaparib; first compound 0.001 µM,0.639
same,relative viability,Gemcitabine + Olaparib; first compound 0.003162 µM,0.641
same,relative viability,Gemcitabine + Olaparib; first compound 0.01 µM,0.323
same,relative viability,Gemcitabine + Olaparib; first compound 0.03162 µM,0.306
same,relative viability,Gemcitabine + Olaparib; first compound 0.1 µM,0.3

# From the supplement of paper PMC10307832
